The results in this text go back to patent US20200354426A1 (MEDIMMUNE LIMITED, priority 2016, published 2020).

Numbered stars: 1 amine (or outer) side, 2 acyl side, 3 side chain; on linkers, the order of the positions; unused ones are H or OH. Side chains are listed from the residue outwards. Peptide text beside a SMILES is read from it. * marks the point of attachment. γGlu = O=C(O)[C@H](CCC(=O)[*:2])N[*:1]; Palmitoyl = CCCCCCCCCCCCCCCC(=O)*

What all share (experiment): cAMP activity assay in assay medium (assay 1)
What all share (type): cell-based

One experiment addresses Human GLP1R (Homo sapiens, UniProt P43220). On the set-up: expressed in transfected cells. The note with it: assay medium; Table 4; read-out: hGLP1R EC50. The source says: (§1) Biological Activity of Peptides in Cell-Based cAMP Activity Assay (Assay 1):
(§2) All sample dilutions were made in duplicate.

The next experiment has as its target T1, Human GIPr (Homo sapiens, UniProt P48546).
T1 construct: expressed in transfected cells
T1 sequence (P48546 22-466): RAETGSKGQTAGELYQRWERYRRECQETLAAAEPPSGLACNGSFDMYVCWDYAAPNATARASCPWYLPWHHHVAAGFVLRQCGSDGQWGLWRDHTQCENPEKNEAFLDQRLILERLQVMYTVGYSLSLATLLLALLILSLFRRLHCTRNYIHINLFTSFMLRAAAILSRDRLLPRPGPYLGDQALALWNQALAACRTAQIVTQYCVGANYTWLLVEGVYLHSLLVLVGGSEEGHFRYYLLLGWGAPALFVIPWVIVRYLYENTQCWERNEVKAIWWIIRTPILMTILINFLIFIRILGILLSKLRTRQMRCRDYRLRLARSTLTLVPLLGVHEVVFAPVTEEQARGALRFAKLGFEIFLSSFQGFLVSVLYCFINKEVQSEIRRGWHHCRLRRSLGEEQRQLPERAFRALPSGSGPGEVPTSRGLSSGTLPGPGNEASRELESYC
The note with it: assay medium; Table 4; read-out: hGIPR EC50.
Text: as §1, §2

Another experiment has as its target T2, Human GlucR (Homo sapiens, UniProt P47871).
T2 construct: expressed in transfected cells
The note with it: assay medium; Table 4; read-out: hGlucR EC50.
Text: as §1, §2

Chain of Human GLP1R (P43220 24-463): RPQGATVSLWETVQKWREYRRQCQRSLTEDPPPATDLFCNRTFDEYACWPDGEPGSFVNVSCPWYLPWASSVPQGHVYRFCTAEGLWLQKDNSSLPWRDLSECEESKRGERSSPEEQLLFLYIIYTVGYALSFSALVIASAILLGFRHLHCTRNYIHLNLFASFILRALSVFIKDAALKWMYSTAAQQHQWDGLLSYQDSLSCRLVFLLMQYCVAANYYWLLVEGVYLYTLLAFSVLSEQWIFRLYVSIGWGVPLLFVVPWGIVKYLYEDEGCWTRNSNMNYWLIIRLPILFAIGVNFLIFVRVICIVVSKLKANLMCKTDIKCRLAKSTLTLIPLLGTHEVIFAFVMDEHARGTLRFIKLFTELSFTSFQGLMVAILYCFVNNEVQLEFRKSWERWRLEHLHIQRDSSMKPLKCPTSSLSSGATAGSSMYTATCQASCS
T2 sequence (P47871 26-477): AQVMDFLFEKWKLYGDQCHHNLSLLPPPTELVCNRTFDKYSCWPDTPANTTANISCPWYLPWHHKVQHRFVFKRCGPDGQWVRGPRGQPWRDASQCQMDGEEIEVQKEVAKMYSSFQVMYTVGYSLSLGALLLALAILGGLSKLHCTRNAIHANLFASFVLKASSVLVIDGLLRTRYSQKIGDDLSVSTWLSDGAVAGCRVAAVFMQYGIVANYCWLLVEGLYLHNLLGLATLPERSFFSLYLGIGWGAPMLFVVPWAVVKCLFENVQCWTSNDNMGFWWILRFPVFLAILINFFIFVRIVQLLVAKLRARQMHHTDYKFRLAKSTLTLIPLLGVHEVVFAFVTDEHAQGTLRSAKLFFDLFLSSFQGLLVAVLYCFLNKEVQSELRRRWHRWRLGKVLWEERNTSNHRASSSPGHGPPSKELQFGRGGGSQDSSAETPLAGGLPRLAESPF

As a reminder, the EC50 is the concentration at which the effect is half-maximal. Turning to `CCCCCCCCCCCCCCCC(=O)N[C@@H](CCC(=O)NCCCC[C@H](NC(=O)[C@H](CO)NC(=O)[C@H](CC(=O)O)NC(=O)[C@H](CC(C)C)NC(=O)[C@H](Cc1ccc(O)cc1)NC(=O)[C@H](CCCCN)NC(=O)[C@H](CO)NC(=O)[C@H](Cc1ccc(O)cc1)NC(=O)[C@H](CC(=O)O)NC(=O)[C@H](CO)NC(=O)[C@@H](NC(=O)[C@H](Cc1ccccc1)NC(=O)[C@@H](NC(=O)CNC(=O)[C@H](CCC(=O)O)NC(=O)[C@H](CO)NC(=O)[C@@H](N)Cc1c[nH]cn1)[C@@H](C)O)[C@@H](C)O)C(=O)N[C@@H](CCCNC(=N)N)C(=O)N[C@@H](C)C(=O)N[C@@H](CCC(=O)O)C(=O)N[C@@H](CC(=O)O)C(=O)N[C@@H](Cc1ccccc1)C(=O)N[C@H](C(=O)N[C@@H](CCC(=O)O)C(=O)N[C@@H](Cc1c[nH]c2ccccc12)C(=O)N[C@@H](CC(C)C)C(=O)N[C@H](C(=O)N[C@@H](C)C(=O)NCC(=O)NCC(N)=O)C(C)C)C(C)C)C(=O)O` [g639] (H-HSEGTFTSDYSKYLDSK([γGlu-Palmitoyl])RAEDFVEWLVAGG-NH2; N-terminus assumed), the figures for the EC50 on Human GLP1R, on Human GIPr and at Human GlucR were 0.244 nM, 82.1 nM and 82.1 nM, respectively.

Consider `CCCCCCCCCCCCCCCC(=O)N[C@@H](CCC(=O)NCCCC[C@H](NC(=O)[C@H](CO)NC(=O)[C@H](CC(=O)O)NC(=O)[C@H](CC(C)C)NC(=O)[C@H](Cc1ccc(O)cc1)NC(=O)[C@H](CCCCN)NC(=O)[C@H](CO)NC(=O)[C@H](Cc1ccc(O)cc1)NC(=O)[C@H](CC(=O)O)NC(=O)[C@H](CO)NC(=O)[C@@H](NC(=O)[C@H](Cc1ccccc1)NC(=O)[C@@H](NC(=O)CNC(=O)[C@H](CCC(N)=O)NC(=O)CNC(=O)[C@@H](N)Cc1c[nH]cn1)[C@@H](C)O)[C@@H](C)O)C(=O)N[C@@H](CCCNC(=N)N)C(=O)N[C@@H](C)C(=O)N[C@@H](CCCNC(=N)N)C(=O)N[C@@H](CC(=O)O)C(=O)N[C@@H](Cc1ccccc1)C(=O)N[C@H](C(=O)N[C@@H](CCC(=O)O)C(=O)N[C@@H](Cc1c[nH]c2ccccc12)C(=O)N[C@@H](CC(C)C)C(=O)N[C@H](C(=O)N[C@@H](C)C(=O)NCC(=O)NCC(N)=O)C(C)C)C(C)C)C(=O)O` [g660] (H-HGQGTFTSDYSKYLDSK([γGlu-Palmitoyl])RARDFVEWLVAGG-NH2; N-terminus assumed), for which the results for the EC50 on Human GLP1R, at Human GIPr and at Human GlucR were 1.06 nM, 332 nM and 1.52 nM, respectively.

Regarding `CCCCCCCCCCCCCCCC(=O)N[C@@H](CCC(=O)NCCCC[C@H](NC(=O)[C@H](Cc1ccc(O)cc1)NC(=O)[C@H](CCCCN)NC(=O)[C@H](CO)NC(=O)[C@H](Cc1ccc(O)cc1)NC(=O)[C@H](CC(=O)O)NC(=O)[C@H](CO)NC(=O)[C@@H](NC(=O)[C@H](Cc1ccccc1)NC(=O)[C@@H](NC(=O)CNC(=O)[C@H](CCC(N)=O)NC(=O)[C@H](CO)NC(=O)[C@@H](N)Cc1c[nH]cn1)[C@@H](C)O)[C@@H](C)O)C(=O)N[C@@H](CC(=O)O)C(=O)N[C@@H](CO)C(=O)N[C@@H](CCCNC(=N)N)C(=O)N[C@@H](CO)C(=O)N[C@@H](C)C(=O)N[C@@H](CCC(N)=O)C(=O)N[C@@H](CC(=O)O)C(=O)N[C@@H](Cc1ccccc1)C(=O)N[C@H](C(=O)N[C@@H](CCC(N)=O)C(=O)N[C@@H](Cc1c[nH]c2ccccc12)C(=O)N[C@@H](CC(C)C)C(=O)N[C@H](C(=O)N[C@@H](C)C(=O)NCC(=O)NCC(N)=O)C(C)C)C(C)C)C(=O)O` [g670] (H-HSQGTFTSDYSKYK([γGlu-Palmitoyl])DSRSAQDFVQWLVAGG-NH2; N-terminus assumed), the figures for the EC50 on Human GLP1R, at Human GIPr and on Human GlucR were 0.0203 nM, 14.9 nM and 0.008 nM, respectively.

`CCCCCCCCCCCCCCCC(=O)N[C@@H](CCC(=O)NCCCC[C@H](NC(=O)[C@H](CO)NC(=O)[C@H](CC(=O)O)NC(=O)[C@H](CC(C)C)NC(=O)[C@H](Cc1ccc(O)cc1)NC(=O)[C@H](CCC(=O)O)NC(=O)[C@H](CO)NC(=O)[C@H](Cc1ccc(O)cc1)NC(=O)[C@H](CC(=O)O)NC(=O)[C@H](CO)NC(=O)[C@@H](NC(=O)[C@H](Cc1ccccc1)NC(=O)[C@@H](NC(=O)CNC(=O)[C@H](CCC(N)=O)NC(=O)CNC(=O)[C@@H](N)Cc1c[nH]cn1)[C@@H](C)O)[C@@H](C)O)C(=O)N[C@@H](CCCNC(=N)N)C(=O)N[C@@H](C)C(=O)N[C@@H](CCCNC(=N)N)C(=O)N[C@@H](CC(=O)O)C(=O)N[C@@H](Cc1ccccc1)C(=O)N[C@H](C(=O)N[C@@H](C)C(=O)N[C@@H](Cc1c[nH]c2ccccc12)C(=O)N[C@@H](CC(C)C)C(=O)N[C@H](C(=O)N[C@@H](C)C(=O)NCC(=O)NCC(N)=O)C(C)C)C(C)C)C(=O)O` [g675] (H-HGQGTFTSDYSEYLDSK([γGlu-Palmitoyl])RARDFVAWLVAGG-NH2; N-terminus assumed): the EC50 at Human GLP1R came out at 0.151 nM; on Human GIPr, 1610 nM; at Human GlucR, 38.4 nM.

Consider `CCCCCCCCCCCCCCCC(=O)N[C@@H](CCC(=O)NCCCC[C@H](NC(=O)[C@H](CO)NC(=O)[C@H](CC(=O)O)NC(=O)[C@H](CC(C)C)NC(=O)[C@H](Cc1ccc(O)cc1)NC(=O)[C@H](CCCCN)NC(=O)[C@H](CO)NC(=O)[C@H](Cc1ccc(O)cc1)NC(=O)[C@H](CC(=O)O)NC(=O)[C@H](CO)NC(=O)[C@@H](NC(=O)[C@H](Cc1ccccc1)NC(=O)[C@@H](NC(=O)CNC(=O)[C@H](CCC(N)=O)NC(=O)CNC(=O)[C@@H](N)Cc1c[nH]cn1)[C@@H](C)O)[C@@H](C)O)C(=O)N[C@@H](CCCNC(=N)N)C(=O)N[C@@H](C)C(=O)N[C@@H](CCC(=O)O)C(=O)N[C@@H](CC(=O)O)C(=O)N[C@@H](Cc1ccccc1)C(=O)N[C@H](C(=O)N[C@@H](CCC(N)=O)C(=O)N[C@@H](Cc1c[nH]c2ccccc12)C(=O)N[C@@H](CC(C)C)C(=O)N[C@H](C(=O)N[C@@H](C)C(=O)NCC(=O)NCC(N)=O)C(C)C)C(C)C)C(=O)O` [g678] (H-HGQGTFTSDYSKYLDSK([γGlu-Palmitoyl])RAEDFVQWLVAGG-NH2; N-terminus assumed), for which the EC50 at Human GLP1R worked out at 0.106 nM; on Human GIPr, 123 nM; at Human GlucR, 4.52 nM.

As to `CCCCCCCCCCCCCCCC(=O)N[C@@H](CCC(=O)NCCCC[C@H](NC(=O)[C@H](CO)NC(=O)[C@H](CC(=O)O)NC(=O)[C@H](CC(C)C)NC(=O)[C@H](Cc1ccc(O)cc1)NC(=O)[C@H](CCCCN)NC(=O)[C@H](CO)NC(=O)[C@H](Cc1ccc(O)cc1)NC(=O)[C@H](CC(=O)O)NC(=O)[C@H](CO)NC(=O)[C@@H](NC(=O)[C@H](Cc1ccccc1)NC(=O)[C@@H](NC(=O)CNC(=O)[C@H](CCC(N)=O)NC(=O)CNC(=O)[C@@H](N)Cc1c[nH]cn1)[C@@H](C)O)[C@@H](C)O)C(=O)N[C@@H](CCCNC(=N)N)C(=O)N[C@@H](C)C(=O)N[C@@H](CCC(N)=O)C(=O)N[C@@H](CC(=O)O)C(=O)N[C@@H](Cc1ccccc1)C(=O)N[C@H](C(=O)N[C@@H](CCC(=O)O)C(=O)N[C@@H](Cc1c[nH]c2ccccc12)C(=O)N[C@@H](CC(C)C)C(=O)N[C@H](C(=O)N[C@@H](C)C(=O)NCC(=O)NCC(N)=O)C(C)C)C(C)C)C(=O)O` [g679] (H-HGQGTFTSDYSKYLDSK([γGlu-Palmitoyl])RAQDFVEWLVAGG-NH2; N-terminus assumed), the EC50 on Human GLP1R is 0.135 nM; on Human GIPr it was 117 nM; on Human GlucR, 0.189 nM.

`CCCCCCCCCCCCCCCC(=O)N[C@@H](CCC(=O)NCCCC[C@H](NC(=O)[C@H](CO)NC(=O)[C@H](CC(=O)O)NC(=O)[C@H](CC(C)C)NC(=O)[C@H](Cc1ccc(O)cc1)NC(=O)[C@H](CCCCN)NC(=O)[C@H](CO)NC(=O)[C@H](Cc1ccc(O)cc1)NC(=O)[C@H](CC(=O)O)NC(=O)[C@H](CO)NC(=O)[C@@H](NC(=O)[C@H](Cc1ccccc1)NC(=O)[C@@H](NC(=O)CNC(=O)[C@H](CCC(N)=O)NC(=O)CNC(=O)[C@@H](N)Cc1c[nH]cn1)[C@@H](C)O)[C@@H](C)O)C(=O)N[C@@H](CCCNC(=N)N)C(=O)N[C@@H](C)C(=O)N[C@@H](CCC(=O)O)C(=O)N[C@@H](CC(=O)O)C(=O)N[C@@H](Cc1ccccc1)C(=O)N[C@H](C(=O)N[C@@H](CCC(=O)O)C(=O)N[C@@H](Cc1c[nH]c2ccccc12)C(=O)N[C@@H](CC(C)C)C(=O)N[C@H](C(=O)N[C@@H](C)C(=O)NCC(=O)NCC(N)=O)C(C)C)C(C)C)C(=O)O` [g680] (H-HGQGTFTSDYSKYLDSK([γGlu-Palmitoyl])RAEDFVEWLVAGG-NH2; N-terminus assumed): the EC50 at Human GLP1R came out at 0.195 nM; on Human GIPr, 96.7 nM; at Human GlucR it was 3.68 nM.
